According to patent US20230357269A1 (LES LABORATOIRES SERVIER, priority 2020, published 2023):
Read-outs that look alike come from different tables or passages of the source.

What was measured:
[1] = other bond
[2] = molecular target: human recombinant LRRK2 protein (Homo sapiens (Human), UniProt Q5S007); assay: LRRK2 Kinase Activity Assay (ADP-Glo); type: biochemical; conditions: LRRK2 wt; LRRKtide peptide and ATP substrates; 1h-incubation at 37° C.
How it was run: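 Recombinant human LRRK2 acted on LRRKtide peptide and ATP for 1 h at 37 °C. ADP formed was detected by ADP-Glo luminescence (ATP depletion, then ADP-to-ATP conversion and luciferase). IC50s came from curve fits over 10 concentrations (N=2).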

Sequence of human recombinant LRRK2 protein (Q5S007 whole entry): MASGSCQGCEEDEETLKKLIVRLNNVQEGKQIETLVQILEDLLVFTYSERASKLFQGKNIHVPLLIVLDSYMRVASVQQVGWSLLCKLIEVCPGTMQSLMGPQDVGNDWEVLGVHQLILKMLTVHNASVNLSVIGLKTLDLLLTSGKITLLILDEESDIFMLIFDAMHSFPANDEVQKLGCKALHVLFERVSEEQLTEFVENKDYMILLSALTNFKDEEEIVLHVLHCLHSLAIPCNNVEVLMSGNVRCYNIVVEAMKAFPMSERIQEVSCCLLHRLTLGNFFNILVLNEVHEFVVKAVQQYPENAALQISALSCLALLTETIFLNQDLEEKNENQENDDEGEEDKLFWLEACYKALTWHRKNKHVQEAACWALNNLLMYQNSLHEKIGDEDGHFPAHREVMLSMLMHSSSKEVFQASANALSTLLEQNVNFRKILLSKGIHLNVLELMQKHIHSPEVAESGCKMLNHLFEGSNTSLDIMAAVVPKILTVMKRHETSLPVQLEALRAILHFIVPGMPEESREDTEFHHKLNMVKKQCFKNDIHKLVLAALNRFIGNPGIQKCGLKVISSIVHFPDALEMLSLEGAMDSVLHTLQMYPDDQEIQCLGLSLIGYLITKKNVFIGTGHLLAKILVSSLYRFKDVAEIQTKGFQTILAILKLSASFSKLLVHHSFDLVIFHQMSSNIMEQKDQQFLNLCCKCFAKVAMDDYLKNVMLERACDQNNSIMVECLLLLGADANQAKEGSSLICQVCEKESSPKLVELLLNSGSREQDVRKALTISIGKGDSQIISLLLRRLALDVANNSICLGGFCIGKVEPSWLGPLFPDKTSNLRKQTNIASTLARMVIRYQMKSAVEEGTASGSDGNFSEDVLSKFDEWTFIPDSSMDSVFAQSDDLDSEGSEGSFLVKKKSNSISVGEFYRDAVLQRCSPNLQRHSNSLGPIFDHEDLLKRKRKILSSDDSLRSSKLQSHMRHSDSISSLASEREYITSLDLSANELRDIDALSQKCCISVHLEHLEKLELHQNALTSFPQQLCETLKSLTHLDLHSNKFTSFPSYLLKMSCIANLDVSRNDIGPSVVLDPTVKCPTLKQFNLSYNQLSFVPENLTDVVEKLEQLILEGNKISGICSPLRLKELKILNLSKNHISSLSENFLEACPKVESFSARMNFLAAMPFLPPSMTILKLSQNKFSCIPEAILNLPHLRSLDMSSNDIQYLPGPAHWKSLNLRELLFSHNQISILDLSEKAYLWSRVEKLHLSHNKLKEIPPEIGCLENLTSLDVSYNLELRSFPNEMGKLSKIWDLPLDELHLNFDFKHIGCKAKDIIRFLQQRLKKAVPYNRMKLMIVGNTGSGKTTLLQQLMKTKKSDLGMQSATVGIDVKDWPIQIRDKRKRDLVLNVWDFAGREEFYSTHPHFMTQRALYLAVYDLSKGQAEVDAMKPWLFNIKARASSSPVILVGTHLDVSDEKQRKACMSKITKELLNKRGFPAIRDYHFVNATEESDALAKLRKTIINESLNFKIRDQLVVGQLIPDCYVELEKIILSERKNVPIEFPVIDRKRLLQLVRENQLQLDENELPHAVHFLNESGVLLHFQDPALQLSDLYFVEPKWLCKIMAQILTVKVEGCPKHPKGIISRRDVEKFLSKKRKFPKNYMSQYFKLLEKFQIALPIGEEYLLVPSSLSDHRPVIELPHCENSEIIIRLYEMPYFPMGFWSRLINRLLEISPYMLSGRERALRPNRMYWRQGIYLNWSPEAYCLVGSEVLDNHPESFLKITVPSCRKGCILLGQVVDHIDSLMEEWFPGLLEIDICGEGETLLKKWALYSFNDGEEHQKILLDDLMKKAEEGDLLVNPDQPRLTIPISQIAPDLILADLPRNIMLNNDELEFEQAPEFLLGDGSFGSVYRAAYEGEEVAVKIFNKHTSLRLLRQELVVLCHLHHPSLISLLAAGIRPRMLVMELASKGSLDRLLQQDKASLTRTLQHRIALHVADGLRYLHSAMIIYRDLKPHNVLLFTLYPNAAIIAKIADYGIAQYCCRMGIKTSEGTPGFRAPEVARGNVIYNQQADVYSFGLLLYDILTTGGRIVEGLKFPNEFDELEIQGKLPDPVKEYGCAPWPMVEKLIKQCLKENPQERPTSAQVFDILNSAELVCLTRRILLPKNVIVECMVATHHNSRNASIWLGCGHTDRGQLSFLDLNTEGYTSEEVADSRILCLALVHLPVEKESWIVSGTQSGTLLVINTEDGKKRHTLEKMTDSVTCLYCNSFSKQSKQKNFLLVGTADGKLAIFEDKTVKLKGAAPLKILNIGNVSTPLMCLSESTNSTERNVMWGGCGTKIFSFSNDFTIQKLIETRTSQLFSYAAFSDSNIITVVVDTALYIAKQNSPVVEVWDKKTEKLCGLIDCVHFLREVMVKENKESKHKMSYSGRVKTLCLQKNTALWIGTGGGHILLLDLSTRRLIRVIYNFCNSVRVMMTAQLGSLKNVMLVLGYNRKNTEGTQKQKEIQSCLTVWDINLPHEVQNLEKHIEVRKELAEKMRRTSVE

IC50 [2] [nM]	Structure (SMILES)	further results
	O=C1NCCCOc2ccc3c(c2)c(nn3C2CCCCO2)-c2cc(Br)cc(c2)CO1 (stereo not drawn)	ring closure, yield of all isomers ([1]; from O=C(NCCCOc1ccc2c(c1)c(-c1cc(Br)cc(CO)c1)nn2C1CCCCO1)OCc1ccccc1, NaH, toluene, 1.6 mM, 140.0 °C, 42.0 h): 25.7%
< 10	O=C1NCCCOc2ccc3[nH]nc(c3c2)C2=CN=C(CCO1)S2 [Example 149, 8,14-dioxa-23-thia-4,10,19,20-tetraazatetracyclo[13.5.2.1^2,5.0^18,21]tricosa-1(20),2,4,15(22),16,18(21)-hexaen-9-one]	
< 10	C[C@@H]1CCNC(=O)OCc2cncc(c2)-c2n[nH]c3cc(F)c(cc23)O1 [Example 124, (13R)-16-fluoro-13-methyl-8,14-dioxa-4,10,19,20-tetraazatetracyclo[13.5.2.1^2,6.0^18,21]tricosa-1(20),2,4,6(23),15,17,21-heptaen-9-one]	
< 10	CC1CCNC(=O)OCc2cc(F)cc(c2)-c2n[nH]c3ccc(cc23)O1 (stereo not drawn) [Example 71, 4-fluoro-13-methyl-8,14-dioxa-10,19,20-triazatetracyclo[13.5.2.1^2,6.0^18,21]tricosa-1(20),2,4,6(23),15,17,21-heptaen-9-one]	
10 to 100	CC1OC(=O)NCCCOc2ccc3[nH]nc(c3c2)-c2cccc1n2 (stereo not drawn) [Example 111, 7-methyl-8,14-dioxa-10,19,20,23-tetraazatetracyclo[13.5.2.1^2,6.0^18,21]tricosa-1(20),2,4,6(23),15,17,21-heptaen-9-one]	
	COCC1CCOc2ccc3c(c2)c(nn3C2CCCCO2)-c2cccc(c2)COC(=O)N1 (stereo not drawn)	ring closure, yield of all isomers ([1]; from COCC(CCOc1ccc2c(c1)c(-c1cccc(CO)c1)nn2C1CCCCO1)NC(=O)OCc1ccccc1, cesium carbonate, acetonitrile, 4.47 mM, 90.0 °C, 6.0 h): 62.3%
< 10	O=C1NCCCOc2ccc3[nH]nc(c3c2)-c2cc(cc(N3CCCCC3)c2)CO1 [Example 36, 4-(piperidin-1-yl)-8,14-dioxa-10,19,20-triazatetracyclo[13.5.2.1^2,6.0^18,21]tricosa-1(20),2,4,6(23),15,17,21-heptaen-9-one]	
< 10	C[C@H]1OC(=O)NCCCOc2ccc3[nH]nc(c3c2)-c2cc(F)cc1c2 (single isomer, unassigned) [Example 109, (7R)- or (7S)-4-fluoro-7-methyl-8,14-dioxa-10,19,20-triazatetracyclo[13.5.2.1^2,6.0^18,21]tricosa-1(20),2,4,6(23),15,17,21-heptaen-9-one]	
< 10	O=C1NC[C@H](F)COc2ccc3[nH]nc(c3c2)-c2cncc(n2)CO1 [Example 171, (12S)-12-fluoro-8,14-dioxa-4,10,19,20,23-pentaazatetracyclo[13.5.2.1^2,6.0^18,21]tricosa-1(20),2(23),3,5,15,17,21-heptaen-9-one]	
< 10	CN1CCN(c2cc3cc(c2)-c2n[nH]c4ccc(cc24)OCCCNC(=O)OC3)CC1 [Example 31, 4-(4-methylpiperazin-1-yl)-8,14-dioxa-10,19,20-triazatetracyclo[13.5.2.1^2,6.0^18,21]tricosa-1(20),2,4,6(23),15,17,21-heptaen-9-one]	
< 10	CC1CCNC(=O)OCc2cc(F)cc(c2)-c2n[nH]c3ccc(cc23)O1 (single isomer, unassigned) [Example 100, (13R) or (13S)-4-fluoro-13-methyl-8,14-dioxa-10,19,20-triazatetracyclo[13.5.2.1^2,6.0^18,21]tricosa-1(20),2(23),3,5,15(22),16,18(21)-heptaen-9-one]	
< 10	O=C1NCCCOc2ccc3[nH]nc(c3c2)-c2cc(cc(N3CCNCC3)c2)CO1 [Example 81, 4-(piperazin-1-yl)-8,14-dioxa-10,19,20-triazatetracyclo[13.5.2.1^2,6.0^18,21]tricosa-1(20),2(23),3,5,15(22),16,18(21)-heptaen-9-one]	
< 10	C[C@@H]1CCNC(=O)OCc2nc(cc(N3CCCC3)n2)-c2n[nH]c3ccc(cc23)O1 [Example 129, (13R)-13-methyl-4-(pyrrolidin-1-yl)-8,14-dioxa-5,10,19,20,23-pentaaza tetracyclo[13.5.2.1^2,6.0^18,21]tricosa-1(20),2,4,6(23),15,17,21-heptaen-9-one]	
< 10	O=C1OCc2cncc(c2)-c2n[nH]c3ccc(cc23)OCC2CCN1C2 (stereo not drawn) [Example 98, 8,15-dioxa-4,10,20,21-tetraazapentacyclo[14.5.2.1^2,6.1^10,13.0^19,22]pentacosa-1(21),2(25),3,5,16(23),17,19(22)-heptaen-9-one]	
10 to 100	CN1CCN(c2ccc3cc2COC(=O)NCCCOc2ccc4[nH]nc-3c4c2)CC1 [Example 49, 5-(4-methylpiperazin-1-yl)-8,14-dioxa-10,19,20-triazatetracyclo[13.5.2.1^2,6.0^18,21]tricosa-1(20),2,4,6(23),15,17,21-heptaen-9-one]	
< 10	O=C1NCCCOc2ccc3[nH]nc(c3c2)-c2cc(cc(N3CCC(N4CCCC4)CC3)c2)CO1 [Example 34, 4-[4-(pyrrolidin-1-yl)piperidin-1-yl]-8,14-dioxa-10,19,20-triazatetracyclo[13.5.2.1^2,6.0^18,21]tricosa-1(20),2,4,6(23),15,17,21-heptaen-9-one]	
< 10	C[C@@H]1CCNC(=O)OCCn2ncc(n2)-c2n[nH]c3ccc(cc23)O1 [Example 159, (13R)-13-methyl-8,14-dioxa-4,5,10,19,20,23-hexaazatetracyclo[13.5.2.1^2,5.0^18,21]tricosa-1(20),2(23),3,15,17,21-hexaen-9-one]	
< 10	O=C1NCC(F)(F)COc2ccc3[nH]nc(c3c2)-c2cccc(c2)CO1 [Example 152, 12,12-difluoro-8,14-dioxa-10,19,20-triazatetracyclo[13.5.2.1^2,6.0^18,21]tricosa-1(20),2(23),3,5,15(22),16,18(21)-heptaen-9-one]	
< 10	COCCOc1cc2cc(c1)-c1n[nH]c3ccc(cc13)OCCCNC(=O)OC2 [Example 70, 4-(2-methoxyethoxy)-8,14-dioxa-10,19,20-triazatetracyclo[13.5.2.1^2,6.0^18,21]tricosa-1(20),2,4,6(23),15,17,21-heptaen-9-one]	
< 10	C[C@H]1CCNC(=O)OCc2cncc(n2)-c2n[nH]c3ccc(cc23)O1 [Example 156, (13S)-13-methyl-8,14-dioxa-4,10,19,20,23-pentaazatetracyclo[13.5.2. 1^2,6.0^18,21]tricosa-1(20),2(23),3,5,15(22),16,18(21)-heptaen-9-one]	
10 to 100	C[C@@H]1CCNC(=O)OCc2ccnc(n2)-c2n[nH]c3ccc(cc23)O1 [Example 140, (13R)-13-methyl-8,14-dioxa-3,10,19,20,23-pentaazatetracyclo[13.5.2.1^2,6.0^18,21]tricosa-1(20),2,4,6(23),15,17,21-heptaen-9-one]	
< 10	O=C1NCCCOc2ccc3[nH]nc(c3c2)-c2cnn(c2)C(C2CC2)CO1 (stereo not drawn) [Example 103, 6-cyclopropyl-8,14-dioxa-4,5,10,19,20-pentaazatetracyclo[13.5.2.1^2,5.0^18,21]tricosa-1(20),2(23),3,15(22),16,18(21)-hexaen-9-one]	
< 10	C[C@@H]1CCNC(=O)OCc2cncc(n2)-c2n[nH]c3ccc(cc23)O1 [Example 133, (13R)-13-methyl-8,14-dioxa-4,10,19,20,23-pentaazatetracyclo[13.5.2.1^2,6.0^18,21]tricosa-1(20),2,4,6(23),15,17,21-heptaen-9-one]	
< 10	COc1ccc2cc1COC(=O)NCCCOc1ccc3[nH]nc-2c3c1 [Example 19, 5-methoxy-8,14-dioxa-10,19,20-triazatetracyclo[13.5.2.1^2,6.0^18,21]tricosa-1(20),2,4,6(23),15,17,21-heptaen-9-one]	
100 to 1000	Cn1nc2cc1CCOC(=O)NCCCOc1ccc3[nH]nc-2c3c1 [Example 145, 4-methyl-8,14-dioxa-3,4,10,19,20-pentaazatetracyclo[13.5.2.1^2,5.0^18,21]tricosa-1(20),2,5(23),15(22),16,18(21)-hexaen-9-one]	
< 10	O=C1NCCCOc2ccc3[nH]nc(c3c2)-c2cc(no2)CCCO1 [Example 123, 3,9,15-trioxa-4,11,20,21-tetraazatetracyclo[14.5.2.1^2,5.0^19,22]tetracosa-1(21),2(24),4,16,18,22-hexaen-10-one]	
< 10	Cc1cc2nc(n1)COC(=O)NCC[C@@H](C)Oc1ccc3[nH]nc-2c3c1 [Example 148, (13R)-4,13-dimethyl-8,14-dioxa-5,10,19,20,23-pentaazatetracyclo[13.5.2. 1^2,6.0^18,21]tricosa-1(20),2(23),3,5,15(22),16,18(21)-heptaen-9-one]	
< 10	C[C@@H]1CCNC(=O)OCc2cccc(n2)-c2n[nH]c3cc(F)c(cc23)O1 [Example 146, (13R)-16-fluoro-13-methyl-8,14-dioxa-10,19,20,23-tetraazatetracyclo[13.5.2.1^2,6.0^18,21]tricosa-1(20),2,4,6(23),15,17,21-heptaen-9-one]	
< 10	N#CCc1cc2cc(c1)-c1n[nH]c3ccc(cc13)OCCCNC(=O)OC2 [Example 77, 2-{9-oxo-8,14-dioxa-10,19,20-triazatetracyclo[13.5.2.1^2,6.0^18,21]tricosa-1(20),2(23),3,5,15(22),16,18(21)-heptaen-4-yl}acetonitrile]	
< 10	O=C1OC2CN1CCCOc1ccc3[nH]nc(c3c1)-c1cc(F)cc2c1 (stereo not drawn) [Example 60, 4-fluoro-8,14-dioxa-10,19,20-triazapentacyclo[13.5.2.1^2,6.1^7,10.0^18,21]tetracosa-1(20),2(24),3,5,15(22),16,18(21)-heptaen-9-one]	
